Results as given in EP4714441A1, “COMPOSITION FOR PREVENTING OR ALLEVIATING HEPATIC DYSFUNCTION” (KIRIN HOLDINGS KABUSHIKI KAISHA, priority 2023, dated 2025).

Experiments:
Format in all cases: cell-based, human
HepG2 cells [1] = test: Cell viability by MTT assay in HepG2 cells without hydrogen peroxide (effect on cell proliferation itself); settings: without hydrogen peroxide solution; result in words
Description: (§1) A human liver cancer-derived cell line (HepG2: HB-8065™, Lot No. 70029112) was obtained from the American Type Culture Collection, and Dulbecco's Modified Eagle Medium (Thermo Fisher Scientific K.K.) containing 10% FBS was used as the basal medium. The cells were cultured in a 37°C, 5% CO2 incubator, and cells passaged for 17 to 22 generations were used for the experiments.
(§2) A cell suspension adjusted to an initial cell concentration of 2 x 10^4 cells/mL was seeded at 0.15 mL into a 96-well plate (Thermo Fisher Scientific K.K.).
(§3) After 20 hours of culture from seeding, alpha-lipoic acid trisulfide (LASSS) or alpha-lipoic acid trisulfide choline ester (LASSS-CE) was added to the medium in groups with a final concentration of 0.025 mM or 0.05 mM. Separately, a group to which only the solvent for LASSS or LASSS-CE (phosphate-buffered saline (PBS) containing 4% DMSO (FUJIFILM Wako Pure Chemical Corporation)) was added was designated as the solvent-added group. After 4 hours of culture following the sample addition, the medium of the above sample-added groups and the solvent-added group was replaced with a medium (not containing LASSS or LASSS-CE) to which hydrogen peroxide solution (FUJIFILM Wako Pure Chemical Corporation) had been added to a final concentration of 0.1 mM, thereby inducing hepatocyte damage. A group in which the same amount of PBS was added instead of hydrogen peroxide solution to the solvent-added group was designated as the control group. After culturing for 2 hours following the addition of hydrogen peroxide solution or PBS, cell viability was measured by the MTT assay to evaluate the extent of hepatocyte injury. In the table, SD represents standard deviation.
(§4) Furthermore, to evaluate the effect of LASSS and LASSS-CE on cell proliferation itself, a similar experiment was conducted by replacing the addition of hydrogen peroxide solution with the addition of the same amount of PBS, and the cell viability was measured by the MTT assay method.

[2] = as above; settings: human, hepg2 cells, PBS instead of hydrogen peroxide, control group = 100; for viability at 25 µM: Sample-added group (0.025 mM); for viability at 50 µM: Sample-added group (0.05 mM)
Description: as §1, §2, §3, §4

HepG2 cells [3] = test: Cell viability by MTT assay in HepG2 cells with hepatocyte damage induced by hydrogen peroxide; settings: HepG2 cells damaged by hydrogen peroxide; result in words
Description: as §1, §2
After 20 hours of culture from seeding, alpha-lipoic acid trisulfide (LASSS) or alpha-lipoic acid trisulfide choline ester (LASSS-CE) was added to the medium in groups with a final concentration of 0.025 mM or 0.05 mM. Separately, a group to which only the solvent for LASSS or LASSS-CE (phosphate-buffered saline (PBS) containing 4% DMSO (FUJIFILM Wako Pure Chemical Corporation)) was added was designated as the solvent-added group. […] After culturing for 2 hours following the addition of hydrogen peroxide solution or PBS, cell viability was measured by the MTT assay to evaluate the extent of hepatocyte injury. […]

| SMILES | effect on the proliferation of HepG2 cells (HepG2 cells [1]) | viability at 25 µM [2] [%] | viability at 50 µM [2] [%] | cell viability compared to the hydrogen peroxide-added group (HepG2 cells [3]) |
| --- | --- | --- | --- | --- |
| O=C(O)CCCCC1CCSSS1 (stereo not drawn) [LASSS, alpha-lipoic acid trisulfide] | did not affect the proliferation of HepG2 cells | 102 | 102 | an improvement in cell viability was confirmed |
| C[N+](C)(C)CCOC(=O)CCCCC1CCSSS1 (stereo not drawn) [LASSS-CE, alpha-lipoic acid trisulfide choline ester] | did not affect the proliferation of HepG2 cells | 109 | 106 | an improvement in cell viability was confirmed |
